Measured values as given in patent US20240180923A1, “METHODS OF TREATING DISORDERS WITH ULK INHIBITORS” (Deciphera Pharmaceuticals, LLC, priority 2022, published 2024).

What was measured:
[1] = MiaPaca-2 xenograft PK/PD model: sotorasib plasma PK with DCC-3116; format: in vivo, mouse; conditions: for AUC(0-t) / Cmax: female, Envigo Nude, mouse, plasma, po, 10 mg/kg
Experimental: The MiaPaca-2 xenograft model was performed in compliance with all the laws, regulations and guidelines of the National Institutes of Health (NIH) and with the approval of the Animal Care and Use Committee of Labcorp (Ann Arbor, MI), an AAALAC accredited facility. Food and water were provided ad libitum. […] Female Envigo Nude mice (6-7 weeks old) were inoculated subcutaneously just below the right high axilla with ten million cells in Dulbecco's Phosphate Buffered Saline with 50% Matrigel, using a 27-gauge needle and syringe. When tumor burdens reached 182 mm^3 on average on day 6, mice were randomly assigned into groups such that the mean tumor burden for all groups was within 10% of the overall mean tumor burden for the study population. […] At 2 h post final dose in the vehicle group, and 2, 6, and 10 h post final dose in the treatment groups, 3 mice from each group were sacrificed for tumor and plasma sampling. Blood samples were collected in K2EDTA tubes and processed into plasma, snap frozen in liquid nitrogen then stored at −80° C. Plasma samples were subjected to pharmacokinetic analysis using liquid chromatography coupled with tandem mass spectrometry analysis (Cayman Chemical, Ann Arbor, MI). Tumors were harvested and powdered over liquid nitrogen in covaris bags and stored at −80° C.

ULK = test: pATG13 ELISA in GIST-T1 cells, DCC-3116 with binimetinib and/or ripretinib; format: cell-based; conditions: GIST-T1 cell line, FIG. 10
Experimental: A substrate solution for HRP was added and the absorbance was measured using a plate reader. Data was plotted in GraphPad Prism and fit to a sigmoidal dose response curve to generate IC50 values.

[2] = Nude mouse PK study with adagrasib and DCC-3116 treatment; format: in vivo; conditions: for AUC(0-t) / Cmax: female, athymic nude, mouse, plasma, po; for AUC(0-t): read-out: adagrasib AUC0-2 h (average); for Cmax: read-out: adagrasib Cmax in plasma (average)
Experimental: The nude mouse PK study was performed at Attentive Science (Stilwell, KS), an AAALAC accredited facility. Food and water were provided ad libitum. […] Female athymic nude mice (n=3 per group) were dosed for 5 consecutive days. […] At 0, 0.5, and 2 h post final dose blood samples were collected from mice from each group. Blood samples were collected in K2EDTA tubes and processed into plasma, then stored at −20° C. Plasma samples were subjected to pharmacokinetic analysis using liquid chromatography coupled with tandem mass spectrometry analysis.

[3] = 10 mg/kg sotorasib + 10 mg/kg DCC-3116
[4] = 10 mg/kg sotorasib + 25 mg/kg DCC-3116
[5] = 10 mg/kg sotorasib + 100 mg/kg DCC-3116
[6] = 10 mg/kg sotorasib as a single agent
[7] = 25 mg/kg, adagrasib in combination with 25 mg/kg DCC-3116 (first statement)
[8] = 25 mg/kg, adagrasib in combination with 25 mg/kg DCC-3116 (second statement)
[9] = 100 mg/kg, adagrasib 100 mg/kg PO QD single agent, 5 days

C=CC(=O)N1CCN(c2nc(=O)n(-c3c(C)ccnc3C(C)C)c3nc(-c4c(O)cccc4F)c(F)cc23)[C@@H](C)C1 [sotorasib]
AUC(0-t) [1, 3]: 344 ng·h/mL
Cmax [1, 3]: 76 ng/mL
AUC(0-t) [1, 4]: 727 ng·h/mL
Cmax [1, 4]: 170 ng/mL
AUC(0-t) [1, 5]: 385 ng·h/mL
Cmax [1, 5]: 74 ng/mL
AUC(0-t) [1, 6]: 963 ng·h/mL
Cmax [1, 6]: 296 ng/mL
differences in sotorasib Cmax and AUC0-10 h amongst groups ([1]; sotorasib alone versus with DCC-3116): not statistically significant

Cn1cnc2c(F)c(Nc3ccc(Br)cc3F)c(C(=O)NOCCO)cc21 [binimetinib]
effect on ULK activity (ULK): induces ULK Activity

C=C(F)C(=O)N1CCN(c2nc(OC[C@@H]3CCCN3C)nc3c2CCN(c2cccc4cccc(Cl)c24)C3)C[C@@H]1CC#N [adagrasib, reference compound]
differences in adagrasib Cmax and AUC0-2 h amongst groups ([2]; adagrasib alone versus with DCC-3116): not statistically significant
AUC(0-t) [2, 7]: 2970 ng·h/mL
Cmax [2, 7]: 1880 ng/mL
AUC(0-t) [2, 8]: 3560 ng·h/mL
Cmax [2, 8]: 2060 ng/mL
AUC(0-t) [2, 9]: 4230 ng·h/mL
Cmax [2, 9]: 2530 ng/mL
